Legend:
[1] = tested on: Monocotyledonous and dicotyledonous weed; experiment: Post-emergence test experiment, weed control effect (Table 2); type: in vivo; set-up: key to weed control effect, Setaria viridis (level) / weed control effect, Rorippa indica (level) / weed control effect, Abutilon theophrasti (level) / weed control effect, Echinochloa crus-galli (level) / weed control effect, Digitaria sanguinalis (level): Level 10: completely dead; Level 9: above 90% growth inhibition rate; Level 8: above 80% growth inhibition rate; Level 7: above 70% growth inhibition rate; Level 6: above 60% growth inhibition rate; Level 5: above 50% growth inhibition rate; Level 4: above 30% growth inhibition rate; Level 3: above 20% growth inhibition rate; Level 2: above 10% growth inhibition rate; Level 1: above 1-10% growth inhibition rate; Level 0: no effect; settings: 3 weeks after spraying, greenhouse
Outline: (§1)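 Compounds, dissolved in acetone, mixed with Tween 80 and diluted in water, were sprayed post-emergence onto greenhouse-grown weeds and crops at the 2-3 leaf stage (2-3 weeks post-sowing). Plants then grown 3 more weeks in the greenhouse before evaluation.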

[2] = tested on: main crop (wheat, corn, rice, soybean, cotton, oilseed, millet and sorghum); experiment: Post-emergence test experiment, main crops (Table 2); type: in vivo; set-up: key: Level 10: completely dead; Level 9: above 90% growth inhibition rate; Level 8: above 80% growth inhibition rate; Level 7: above 70% growth inhibition rate; Level 6: above 60% growth inhibition rate; Level 5: above 50% growth inhibition rate; Level 4: above 30% growth inhibition rate; Level 3: above 20% growth inhibition rate; Level 2: above 10% growth inhibition rate; Level 1: above 1-10% growth inhibition rate; Level 0: no effect; settings: 3 weeks after spraying, greenhouse
Outline: as §1

SMILES | weed control effect, Abutilon theophrasti (level) ([1]; 30 g/ha) | weed control effect, Bidens pilosa (level) ([1]; 30 g/ha) | weed control effect, Digitaria sanguinalis (level) ([1]; 30 g/ha) | weed control effect, Echinochloa crus-galli (level) ([1]; 30 g/ha) | weed control effect, Rorippa indica (level) ([1]; 30 g/ha) | weed control effect, Setaria viridis (level) ([1]; 30 g/ha) | effect on crop, corn (level) ([2]; 30 g/ha) | effect on crop, rice (level) ([2]; 30 g/ha) | effect on crop, wheat (level) ([2]; 30 g/ha) | weed control effect, Abutilon theophrasti (level) ([1]; 120 g/ha) | weed control effect, Bidens pilosa (level) ([1]; 120 g/ha) | weed control effect, Digitaria sanguinalis (level) ([1]; 120 g/ha) | weed control effect, Echinochloa crus-galli (level) ([1]; 120 g/ha) | weed control effect, Rorippa indica (level) ([1]; 120 g/ha) | weed control effect, Setaria viridis (level) ([1]; 120 g/ha) | effect on crop, corn (level) ([2]; 120 g/ha) | effect on crop, rice (level) ([2]; 120 g/ha) | effect on crop, wheat (level) ([2]; 120 g/ha)
Cc1c(C(=O)c2c(C3CC3)nn(C)c2OC(=O)c2cnn(C)c2)ccc(S(C)(=O)=O)c1COCC(F)(F)F [Compound 78] | 7 (Level 7: above 70% growth inhibition rate) | 7 (Level 7: above 70% growth inhibition rate) | 7 (Level 7: above 70% growth inhibition rate) | 10 | 10 | 10 | 1 (Level 1: above 1-10% growth inhibition rate) | 3 (Level 3: above 20% growth inhibition rate) | 0 |  |  |  |  |  |  |  |  | 
Cc1cc(C)n(Cc2c(S(C)(=O)=O)ccc(C(=O)c3c(C)nn(C)c3OC(=O)c3cnn(C)c3)c2C)n1 [Compound 79] |  |  |  |  |  |  |  |  |  | 6 (Level 6: above 60% growth inhibition rate) | 6 (Level 6: above 60% growth inhibition rate) | 1 (Level 1: above 1-10% growth inhibition rate) | 10 | 4 (Level 4: above 30% growth inhibition rate) | 3 (Level 3: above 20% growth inhibition rate) | 0 | 0 | 0
CCOCc1c(S(C)(=O)=O)ccc(C(=O)c2cnn(C)c2OC(=O)c2cnn(C)c2OCC)c1C [Compound 80] | 6 (Level 6: above 60% growth inhibition rate) | 7 (Level 7: above 70% growth inhibition rate) | 7 (Level 7: above 70% growth inhibition rate) | 10 | 10 | 6 (Level 6: above 60% growth inhibition rate) | 0 | 3 (Level 3: above 20% growth inhibition rate) | 0 |  |  |  |  |  |  |  |  | 
CCOc1c(C(=O)Oc2c(C(=O)c3ccc(S(C)(=O)=O)c(Cn4cc(C)cn4)c3C)c(C3CC3)nn2C)cnn1C [Compound 81] |  |  |  |  |  |  |  |  |  | 6 (Level 6: above 60% growth inhibition rate) | 6 (Level 6: above 60% growth inhibition rate) | 1 (Level 1: above 1-10% growth inhibition rate) | 10 | 4 (Level 4: above 30% growth inhibition rate) | 3 (Level 3: above 20% growth inhibition rate) | 0 | 0 | 0
CCOc1c(C(=O)Oc2c(C(=O)c3ccc(S(C)(=O)=O)c(Cn4cc(Cl)cn4)c3C)c(C)nn2CC)cnn1C [Compound 82] |  |  |  |  |  |  |  |  |  | 6 (Level 6: above 60% growth inhibition rate) | 6 (Level 6: above 60% growth inhibition rate) | 1 (Level 1: above 1-10% growth inhibition rate) | 10 | 4 (Level 4: above 30% growth inhibition rate) | 3 (Level 3: above 20% growth inhibition rate) | 0 | 0 | 0
CCn1nc(C2CC2)c(C(=O)c2ccc(S(C)(=O)=O)c(Cn3cc(Cl)cn3)c2C)c1OC(=O)c1cn(C)nc1C [Compound 84] |  |  |  |  |  |  |  |  |  | 6 (Level 6: above 60% growth inhibition rate) | 6 (Level 6: above 60% growth inhibition rate) | 1 (Level 1: above 1-10% growth inhibition rate) | 10 | 4 (Level 4: above 30% growth inhibition rate) | 3 (Level 3: above 20% growth inhibition rate) | 0 | 0 | 0
CCn1nc(C)c(C(=O)c2ccc(S(C)(=O)=O)c(COCC(F)(F)C(F)F)c2C)c1OC(=O)c1cnn(C)c1 [Compound 85] | 6 (Level 6: above 60% growth inhibition rate) | 7 (Level 7: above 70% growth inhibition rate) | 8 (Level 8: above 80% growth inhibition rate) | 9 (Level 9: above 90% growth inhibition rate) | 10 | 8 (Level 8: above 80% growth inhibition rate) | 0 | 3 (Level 3: above 20% growth inhibition rate) | 0 |  |  |  |  |  |  |  |  | 
CCOCCOCc1c(S(C)(=O)=O)ccc(C(=O)c2c(C3CC3)nn(CC)c2OC(=O)c2cnn(C)c2OCC)c1C [Compound 86] | 6 (Level 6: above 60% growth inhibition rate) | 7 (Level 7: above 70% growth inhibition rate) | 8 (Level 8: above 80% growth inhibition rate) | 8 (Level 8: above 80% growth inhibition rate) | 10 | 8 (Level 8: above 80% growth inhibition rate) | 0 | 3 (Level 3: above 20% growth inhibition rate) | 0 |  |  |  |  |  |  |  |  | 
CCn1ncc(C(=O)c2ccc(S(C)(=O)=O)c(Cn3cc(C)cn3)c2C)c1OC(=O)c1cnn(C)c1 [Compound 87] |  |  |  |  |  |  |  |  |  | 6 (Level 6: above 60% growth inhibition rate) | 6 (Level 6: above 60% growth inhibition rate) | 1 (Level 1: above 1-10% growth inhibition rate) | 10 | 4 (Level 4: above 30% growth inhibition rate) | 3 (Level 3: above 20% growth inhibition rate) | 0 | 0 | 0
CC=CCOCc1c(S(C)(=O)=O)ccc(C(=O)c2cnn(CC)c2OC(=O)c2cnn(C)c2)c1Cl [Compound 88] | 6 (Level 6: above 60% growth inhibition rate) | 7 (Level 7: above 70% growth inhibition rate) | 8 (Level 8: above 80% growth inhibition rate) | 7 (Level 7: above 70% growth inhibition rate) | 10 | 8 (Level 8: above 80% growth inhibition rate) | 0 | 3 (Level 3: above 20% growth inhibition rate) | 0 |  |  |  |  |  |  |  |  | 
CCn1nc(C)c(C(=O)c2ccc(S(C)(=O)=O)c(Cn3cccn3)c2Cl)c1OC(=O)c1cn(C)nc1C [Compound 89] | 7 (Level 7: above 70% growth inhibition rate) | 7 (Level 7: above 70% growth inhibition rate) | 7 (Level 7: above 70% growth inhibition rate) | 10 | 10 | 8 (Level 8: above 80% growth inhibition rate) | 1 (Level 1: above 1-10% growth inhibition rate) | 1 (Level 1: above 1-10% growth inhibition rate) | 0 |  |  |  |  |  |  |  |  | 
CCn1nc(C2CC2)c(C(=O)c2ccc(S(C)(=O)=O)c(Cn3cc(C)cn3)c2Cl)c1OC(=O)c1cnn(C)c1 [Compound 91] |  |  |  |  |  |  |  |  |  | 6 (Level 6: above 60% growth inhibition rate) | 6 (Level 6: above 60% growth inhibition rate) | 1 (Level 1: above 1-10% growth inhibition rate) | 10 | 4 (Level 4: above 30% growth inhibition rate) | 3 (Level 3: above 20% growth inhibition rate) | 0 | 0 | 0
CCOc1c(C(=O)Oc2c(C(=O)c3ccc(S(C)(=O)=O)c(COC)c3Cl)c(C)nn2CC)cnn1C [Compound 92] | 5 (Level 5: above 50% growth inhibition rate) | 7 (Level 7: above 70% growth inhibition rate) | 8 (Level 8: above 80% growth inhibition rate) | 10 | 10 | 10 | 1 (Level 1: above 1-10% growth inhibition rate) | 3 (Level 3: above 20% growth inhibition rate) | 0 |  |  |  |  |  |  |  |  | 
